Data reported in US20070280946A1, “Antibody to 5' -Deoxy-5' - Methylthioadenosine And Uses Thereof” (priority 2004, published 2007).
pIC50: −log10 of the molar value.

Experiments:
[1] = system: interaction of proteoglycan units with collagen; details: column of Sepharose 4B-collagen loaded with proteoglycan subunits; cited from earlier work
[2] = target: T1, alkaline phosphatase produced from cartilage (Homo sapiens, UniProt P05186); details: cited from earlier work
T1 sequence (P05186 18-501): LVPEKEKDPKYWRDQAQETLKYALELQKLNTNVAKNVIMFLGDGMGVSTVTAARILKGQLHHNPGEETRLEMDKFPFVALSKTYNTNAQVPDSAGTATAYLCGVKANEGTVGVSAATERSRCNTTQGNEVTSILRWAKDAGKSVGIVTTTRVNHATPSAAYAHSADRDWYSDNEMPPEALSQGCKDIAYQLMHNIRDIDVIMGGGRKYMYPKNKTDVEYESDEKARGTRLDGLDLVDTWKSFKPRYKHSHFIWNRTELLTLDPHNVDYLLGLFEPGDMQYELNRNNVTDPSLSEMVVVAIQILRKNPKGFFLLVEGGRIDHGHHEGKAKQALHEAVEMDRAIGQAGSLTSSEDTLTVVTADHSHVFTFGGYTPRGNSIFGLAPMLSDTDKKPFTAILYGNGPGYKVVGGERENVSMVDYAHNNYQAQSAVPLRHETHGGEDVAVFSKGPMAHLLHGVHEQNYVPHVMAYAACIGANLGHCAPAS

spermidine synthase [3] = target: T2, spermidine synthase (Homo sapiens, UniProt P19623); assay: Activity measurement of spermidine synthase by ELISA; assay type: biochemical; details: measured by ELISA; read-out: IC50 value, inhibition of MTA production by SPDS
T2 construct: Human SPDS gene was amplified by PCR, inserted into an entry vector pENTR11; made in house; host or cells: HEK293 cells (transient transfection, Lipofectamine 2000)
T2 sequence (P19623 1-302): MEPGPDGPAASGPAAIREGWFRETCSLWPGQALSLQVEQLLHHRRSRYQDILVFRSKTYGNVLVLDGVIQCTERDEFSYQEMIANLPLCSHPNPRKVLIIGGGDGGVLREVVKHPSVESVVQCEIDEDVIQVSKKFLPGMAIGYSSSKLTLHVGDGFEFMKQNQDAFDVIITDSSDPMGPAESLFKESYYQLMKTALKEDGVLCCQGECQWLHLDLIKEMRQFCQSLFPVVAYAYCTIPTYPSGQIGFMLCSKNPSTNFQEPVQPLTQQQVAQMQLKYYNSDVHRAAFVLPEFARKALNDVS
Description: The amount of MTA in each well was calculated from the competitive curve described above, and the produced amount of MTA per an enzyme amount and a reaction time was determined to be defined as an enzyme activity. It was confirmed that a production amount of MTA was increased depending on a concentration of spermidine synthase and a reaction time. […] Pharma., 1991.). […] By detecting a production amount of MTA according to the present method, an inhibition effect of the test substance was measured.

spermidine synthase [4] = target: T2, spermidine synthase; assay: Activity measurement of spermidine synthase by HTRF; assay type: biochemical; details: measured by HTRF; read-out: IC50 value, inhibition of MTA production by SPDS
Description: 10 μL of spermidine synthase diluted with buffer C was added into 384-well assay plate (black, Corning). Then, to the plate was added 10 μl of the above substrate mixture, and reaction was conducted at room temperature. […] Then, each well was added with 20 μl of europium cryptate-labeled anti-MTA-7H8 antibody made to 288 ng/ml with buffer D, and the mixture was reacted for 16 hours at room temperature. Fluorescence of each well was measured by Rubyster (BMG Labtechnologis). An amount of MTA in each well was calculated from a standard curve, and converted to an amount of MTA per an enzyme amount and a reaction time, which was an enzyme activity. In FIG. 4, open circles represent reactivity to dcSAM and filled circles represent reactivity to MTA. […] It was confirmed that a production amount of MTA was increased depending on a concentration of spermidine synthase and a reaction time. […] By detecting a production amount of MTA according to the present method, an inhibition effect of the test substance was measured.

spermidine synthase [5] = details: Shirahata et al., Biochem. Pharma., 1991; read-out: IC50 value in a publication; cited from earlier work

pIC50 (spermidine synthase [3])	pIC50 (spermidine synthase [4])	Structure (SMILES)	capacity of displacing proteoglycan subunits from the column [1]	proteoglycan subunits removed from the column [1]	effect on activity of alkaline phosphatase produced from cartilage [2]	pIC50 (spermidine synthase [5])
–	–	NCCCCNCCCN [spermidine]	showed the capacity of displacing proteoglycan subunits	about 90%	increased the activity	–
–	–	NCCCNCCCCNCCCN [spermine]	without effect	–	increased the activity	–
–	–	NCCCCN [putrescine]	without effect	–	–	–
6.00	5.96	CC1CCC(N)CC1 (stereo not drawn) [4-methylcyclohexylamine]	–	–	–	5.77
